Key:
Androgen receptor [1] = molecular target: T1, Androgen receptor (Homo sapiens, UniProt P10275); test: Modulation of androgen receptor (unknown origin) expressed in Cos7 cells assessed as luciferase activity after 24 hrs; type: cell-based, COS-7
T1 sequence (P10275 whole entry): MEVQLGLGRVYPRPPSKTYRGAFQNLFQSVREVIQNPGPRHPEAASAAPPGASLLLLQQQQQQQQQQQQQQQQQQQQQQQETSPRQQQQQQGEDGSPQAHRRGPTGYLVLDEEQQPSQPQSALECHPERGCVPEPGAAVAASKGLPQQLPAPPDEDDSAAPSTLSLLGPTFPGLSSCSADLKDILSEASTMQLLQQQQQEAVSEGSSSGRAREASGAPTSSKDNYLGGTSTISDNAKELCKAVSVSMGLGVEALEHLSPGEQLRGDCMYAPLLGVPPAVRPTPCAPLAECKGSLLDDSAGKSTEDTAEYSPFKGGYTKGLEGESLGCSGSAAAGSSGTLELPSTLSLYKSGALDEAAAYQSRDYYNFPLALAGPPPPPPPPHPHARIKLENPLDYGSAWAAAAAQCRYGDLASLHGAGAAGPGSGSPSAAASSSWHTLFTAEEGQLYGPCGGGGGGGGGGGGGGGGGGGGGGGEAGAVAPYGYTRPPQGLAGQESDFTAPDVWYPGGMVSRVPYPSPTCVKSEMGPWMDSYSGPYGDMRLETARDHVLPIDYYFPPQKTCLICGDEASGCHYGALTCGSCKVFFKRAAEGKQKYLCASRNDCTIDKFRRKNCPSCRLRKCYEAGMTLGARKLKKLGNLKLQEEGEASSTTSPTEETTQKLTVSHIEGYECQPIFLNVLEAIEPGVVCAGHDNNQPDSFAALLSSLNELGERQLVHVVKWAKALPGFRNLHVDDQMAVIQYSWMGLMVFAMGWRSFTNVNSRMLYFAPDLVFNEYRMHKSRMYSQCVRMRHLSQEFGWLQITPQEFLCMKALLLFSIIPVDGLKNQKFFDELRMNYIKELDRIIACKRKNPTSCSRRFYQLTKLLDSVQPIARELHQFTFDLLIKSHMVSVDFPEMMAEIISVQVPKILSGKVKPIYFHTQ

Rattus norvegicus [2] = test: Induction of sexual behavior in castrated male CD(SD)IGS rat assessed as pseudopregnancy rate in female rat at 0.5 mg/kg, po bid measured on day 21 after first treatment (reference value: 0%); type: functional
Rattus norvegicus [3] = test: Toxicity in male CD(SD)IGS rat assessed as effect on prostate weight at 1.5 mg/kg, po bid for 4 days by Hershberger assay; type: organism-based, Prostate gland; design: dose 1.5 mg/kg, route oral; conditions: in vivo, 96 h
Rattus norvegicus [4] = test: Induction of levator ani muscle weight in male CD(SD)IGS rat at 1.5 mg/kg, po bid for 4 days by Hershberger assay; type: functional
Rattus norvegicus [5] = test: Induction of sexual behavior in castrated male CD(SD)IGS rat assessed as pseudopregnancy rate in female rat at 1.5 mg/kg, po bid measured on day 21 after first treatment (reference value: 0%); type: functional
Androgen receptor [6] = molecular target: T1, Androgen receptor; test: Displacement of [3H]mibolerone from androgen receptor (unknown origin) after 3 hrs
Rattus norvegicus [7] = test: Toxicity in male CD(SD)IGS rat assessed as effect on seminal vesicle weight at 1.5 mg/kg, po bid for 4 days by Hershberger assay; type: organism-based; design: dose 1.5 mg/kg, route oral; conditions: in vivo, 96 h
Rattus norvegicus [8] = test: Induction of sexual behavior in castrated male CD(SD)IGS rat assessed as pseudopregnancy rate in female rat at 5 mg/kg, po bid measured on day 21 after first treatment (reference value: 0%); type: functional
Rattus norvegicus [9] = test: Induction of sexual behavior in castrated male CD(SD)IGS rat assessed as pseudopregnancy rate in female rat at 2.5 mg/kg, po bid measured on day 21 after first treatment (reference value: 0%); type: functional
Plasma = test: Drug uptake in male Sprague-Dawley rat plasma at 5 mg/kg, po; type: ADME, organism-based; design: dose 5 mg/kg, route oral; conditions: in vivo
Rattus norvegicus [10] = test: Induction of sexual behavior in castrated male CD(SD)IGS rat assessed as pseudopregnancy rate in female rat at 3.5 mg/kg, po bid measured on day 21 after first treatment (reference value: 0%); type: functional
Prostate gland = test: Drug uptake in male Sprague-Dawley rat prostate at 5 mg/kg, po; type: ADME, organism-based; design: dose 5 mg/kg, route oral; conditions: in vivo
Brain = test: Drug uptake in male Sprague-Dawley rat brain at 5 mg/kg, po; type: ADME, organism-based; design: dose 5 mg/kg, route oral; conditions: in vivo
[11] = Drug uptake in male Sprague-Dawley rat levator ani muscle at 5 mg/kg, po; type: ADME, organism-based; design: dose 5 mg/kg, route oral; conditions: in vivo

SMILES	EC50 (Androgen receptor [1]) [nM]	IC50 (Androgen receptor [6]) [nM]	further results
C[C@H]1[C@@H](O)CCN1c1ccc(C#N)c2ccccc12	0.25	2.2	Activity (Rattus norvegicus [2]): 44%; Activity (Rattus norvegicus [3]): Non-toxic; Activity (Rattus norvegicus [4]): 150%; Activity (Rattus norvegicus [5]): 70%; Activity (Rattus norvegicus [7]): Non-toxic; Activity (Rattus norvegicus [8]): 80%
C[C@@H]1CCCN1c1ccc(C#N)c2ccccc12	> 1000	20	–
C[C@H]1C(=O)CCN1c1ccc(C#N)c2ccccc12	2.2	37	–
O=C(O)c1ccc(N2CCCC2)c2ccccc12	–	> 10000	–
C[C@H]1[C@@H](CO)CCN1c1ccc(C#N)c2ccccc12	1.2	4.1	–
N#Cc1ccc(N2CCC[C@@H]2C#N)c2ccccc12	160	1	–
CC[C@H]1CCCN1c1ccc(C#N)c2ccccc12	0.24	1.1	–
C[C@H]1[C@@H](C(C)(C)O)CCN1c1ccc(C#N)c2ccccc12	45	1.4	Activity (Rattus norvegicus [9]): 57%; Drug uptake (Plasma): Active; Activity (Rattus norvegicus [3]): Non-toxic; Activity (Rattus norvegicus [10]): 57%; Activity (Rattus norvegicus [7]): Non-toxic; Activity (Rattus norvegicus [8]): 50%; Drug uptake (Prostate gland): Active; Drug uptake (Brain): Active; Drug uptake [11]: Active
O=[N+]([O-])c1ccc(N2CCCC2)c2ccccc12	41	2.5	–
CC(C)[C@H]1CCCN1c1ccc(C#N)c2ccccc12	2	1.4	–
N#Cc1ccc(N2CCC[C@@H]2C(N)=O)c2ccccc12	21	34	–
CC1(C)CCCN1c1ccc(C#N)c2ccccc12	21	7	–
C[C@H]1CCCN1c1ccc(C#N)c2ccccc12	0.19	0.84	–
COC(=O)[C@H]1CCN(c2ccc(C#N)c3ccccc23)[C@H]1C	> 1000	7.5	–
C[C@H]1[C@H](O)CCN1c1ccc(C#N)c2ccccc12	0.32	2.4	Activity (Rattus norvegicus [2]): 38%; Activity (Rattus norvegicus [3]): Non-toxic; Activity (Rattus norvegicus [4]): 150%; Activity (Rattus norvegicus [5]): 67%; Activity (Rattus norvegicus [7]): Non-toxic; Activity (Rattus norvegicus [8]): 67%
N#Cc1ccc(N2CCCC2)c2ccccc12	2.5	2.5	–
